# Results published in PubChem BioAssay (NCI).
#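 A five-concentration, 48-hour dose response in 96-well plates underlies each endpoint, interpolated linearly between surrounding concentrations. GI50 = concentration required for 50% inhibition of growth. TGI: concentration producing complete growth inhibition.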
# Columns and labels:
# Test in all cases: inhibition of tumour cell growth, NCI panel, 48 h
# NCI-H23 lung = tested on: NCI-H23 lung
# NCI/ADR-RES ovarian = tested on: NCI/ADR-RES ovarian
# SF-295 CNS = tested on: SF-295 CNS
# SK-MEL-5 melanoma = tested on: SK-MEL-5 melanoma
# NCI-H522 lung = tested on: NCI-H522 lung
# ACHN renal = tested on: ACHN renal
# SNB-19 CNS = tested on: SNB-19 CNS
# SK-MEL-28 melanoma = tested on: SK-MEL-28 melanoma
Compound,GI50 (NCI-H23 lung),TGI (NCI-H23 lung),GI50 (NCI/ADR-RES ovarian),TGI (NCI/ADR-RES ovarian),GI50 (SF-295 CNS),TGI (SF-295 CNS),GI50 (SK-MEL-5 melanoma),TGI (SK-MEL-5 melanoma),GI50 (NCI-H522 lung),TGI (NCI-H522 lung),GI50 (ACHN renal),TGI (ACHN renal),GI50 (SNB-19 CNS),TGI (SNB-19 CNS),GI50 (SK-MEL-28 melanoma),TGI (SK-MEL-28 melanoma)
O=C(CCCCCCN1CC(=O)N2[C@@H](c3ccc(Cl)c(Cl)c3)c3[nH]c4ccccc4c3C[C@H]2C1=O)NO,4.73 µM,13.5 µM,> 33.3 µM,> 33.3 µM,3.66 µM,8 µM,4.73 µM,9.29 µM,3.21 µM,10.5 µM,5.34 µM,12.9 µM,4.54 µM,12.5 µM,3.54 µM,9.52 µM
CC1(C)CC(=O)C2=C(C1)OC(N)=C(c1nc(-c3ccccc3)cs1)C2c1ccc(Br)cc1 (configuration not stated),53.7 µg/mL,> 150 µg/mL,106 µg/mL,> 150 µg/mL,142 µg/mL,> 150 µg/mL,38.7 µg/mL,> 150 µg/mL,42.1 µg/mL,> 150 µg/mL,61.5 µg/mL,> 150 µg/mL,> 150 µg/mL,> 150 µg/mL,93.8 µg/mL,> 150 µg/mL
CC1=C(CC(=O)c2cccc([N+](=O)[O-])c2)C(=O)c2ccccc2C1=O,9.12 µM,36.9 µM,3.38 µM,20.6 µM,17.7 µM,36.4 µM,1.67 µM,3.73 µM,2.97 µM,8.84 µM,2.96 µM,11.9 µM,> 100 µM,> 100 µM,3.54 µM,13.9 µM
COC(=O)CCCCC(=O)c1c(C)[nH]c(/C=C2\N=C(c3ccc[nH]3)C=C2OC)c1C,1.46 µM,3.6 µM,0.504 µM,1.91 µM,1.52 µM,3.05 µM,0.357 µM,1.37 µM,0.673 µM,2.19 µM,1 µM,2.32 µM,1.53 µM,3.16 µM,1.17 µM,2.47 µM
O=C(CC1(O)C(=O)N(Cc2ccccc2)c2ccccc21)c1ccc(C(=O)NCC2CCC3(CC2)OOC2(CCCCC2)OO3)cc1 (configuration not stated),0.402 µM,1.28 µM,1.18 µM,3.47 µM,1.3 µM,5.11 µM,1.66 µM,3.14 µM,0.24 µM,0.73 µM,0.195 µM,0.399 µM,4.67 µM,51.8 µM,4.96 µM,26.8 µM
CC1OC(OC2C(O)CC(OC3C(O)CC(OC4CCC5(C)C(CCC6C5CC(O)C5(C)C(C7=CC(=O)OC7)CCC65O)C4)OC3C)OC2C)CC(O)C1O (configuration not stated),0.0235 µM,0.0662 µM,0.0385 µM,0.145 µM,0.0317 µM,0.171 µM,0.0371 µM,0.129 µM,0.0225 µM,0.0639 µM,0.0358 µM,0.126 µM,0.113 µM,0.238 µM,0.152 µM,0.302 µM
CCCCCCNC(=O)Oc1ccc(/C(=C(\C)c2ccc(Cl)cc2)c2ccc(OCCN3CCCCC3)cc2)cc1,3.89 µM,9.61 µM,4.15 µM,8.77 µM,4.79 µM,9.62 µM,2.46 µM,6.71 µM,6.14 µM,13 µM,4.87 µM,9.55 µM,6.37 µM,28.9 µM,4.34 µM,9.34 µM
